On to `CN(Cc1sc2c(=O)c(C(=O)NCc3ccc(Cl)cc3)cn(C)c2c1CO)CC(O)c1ccc(C#N)s1` (stereo not drawn) [Example 85, N-(4-Chlorobenzyl)-2-{[[2-(5-cyanothien-2-yl)-2-hydroxyethyl](methyl)amino]methyl}-3-(hydroxymethyl)-4-methyl-7-oxo-4,7-dihydrothieno[3,2-b]pyridine-6-carboxamide], for which the melting point was in the range of 188 to 190 °C.

`COc1cccc(C(O)CN(C)Cc2sc3c(=O)c(C(=O)NCc4ccc(Cl)cc4)cn(C)c3c2CO)c1` (stereo not drawn) [Example 86, N-(4-Chlorobenzyl)-2-{[[2-hydroxy-2-(3-methoxyphenyl)ethyl](methyl)amino]methyl}-3-(hydroxymethyl)-4-methyl-7-oxo-4,7-dihydrothieno[3,2-b]pyridine-6-carboxamide] displayed a melting point of 165 to 168 °C.

In turn, `CN(Cc1sc2c(=O)c(C(=O)NCc3ccc(Cl)cc3)cn(C)c2c1COCC[Si](C)(C)C)CC(O)c1cnccn1` (stereo not drawn) came in with a melting point of 154.9 to 155.5 °C.

As to `COCCOCc1c(CN(C)CC(O)c2cccc(OC)c2)sc2c(=O)c(C(=O)NCc3ccc(Cl)cc3)cn(C)c12` (stereo not drawn) [Example 73, N-(4-Chlorobenzyl)-2-{[[2-hydroxy-2-(3-methoxyphenyl)ethyl](methyl)amino]methyl}-3-[(2-methoxyethoxy)methyl]-4-methyl-7-oxo-4,7-dihydrothieno[3,2-b]pyridine-6-carboxamide], the melting point was 135 to 138 °C.

`CN(Cc1sc2c(=O)c(C(=O)NCc3ccc(Cl)cc3)cn(C)c2c1CN)C[C@@H](O)c1ccccn1` [Example 91, 3-(Aminomethyl)-N-(4-chlorobenzyl)-2-{[[(2R)-2-hydroxy-2-pyridin-2-ylethyl](methyl)amino]methyl}-4-methyl-7-oxo-4,7-dihydrothieno[3,2-b]pyridine-6-carboxamide] registered a melting point of 144 to 148 °C.

The compound `COCCOCc1c(CN(C)CC(O)c2ccccn2)sc2c(=O)c(C(=O)NCc3ccc(Cl)cc3)cn(C)c12` (stereo not drawn) [Example 76, N-(4-Chlorobenzyl)-2-{[(2-hydroxy-2-pyridin-2-ylethyl)(methyl)amino]methyl}-3-[(2-methoxyethoxy)methyl]-4-methyl-7-oxo-4,7-dihydrothieno[3,2-b]pyridine-6-carboxamide] came in with a melting point of 150.5 to 152 °C.

As to `COCCOCc1c(CN(C)CC(O)c2cccnc2)sc2c(=O)c(C(=O)NCc3ccc(Cl)cc3)cn(C)c12` (stereo not drawn) [Example 72, N-(4-Chlorobenzyl)-2-{[(2-hydroxy-2-pyridin-3-ylethyl)(methyl)amino]methyl}-3-[(2-methoxyethoxy)methyl]-4-methyl-7-oxo-4,7-dihydrothieno[3,2-b]pyridine-6-carboxamide], the melting point lay in the range of 129 to 132 °C.

Compound `CN(Cc1sc2c(=O)c(C(=O)NCc3ccc(Cl)cc3)cn(C)c2c1CO)CC(O)c1ccc2ccccc2n1` (stereo not drawn) [Example 89, N-(4-Chlorobenzyl)-3-(hydroxymethyl)-2-{[(2-hydroxy-2-quinolin-2-ylethyl)(methyl)amino]methyl}-4-methyl-7-oxo-4,7-dihydrothieno[3,2-b]pyridine-6-carboxamide] came in with a melting point of 196 to 198 °C.

Turning to `COCCOCc1c(CN(C)CC(O)c2ccc(C#N)s2)sc2c(=O)c(C(=O)NCc3ccc(Cl)cc3)cn(C)c12` (stereo not drawn) [Example 80, N-(4-Chlorobenzyl)-2-{[[2-(5-cyanothien-2-yl)-2-hydroxyethyl](methyl)amino]methyl}-3-[(2-methoxyethoxy)methyl]-4-methyl-7-oxo-4,7-dihydrothieno[3,2-b]pyridine-6-carboxamide], the melting point was in the range of 163 to 164 °C.

`COCCOCc1c(CN(C)CC(O)c2c[nH]c3ccccc23)sc2c(=O)c(C(=O)NCc3ccc(Cl)cc3)cn(C)c12` (stereo not drawn) [Example 75, N-(4-Chlorobenzyl)-2-{[[2-hydroxy-2-(1H-indol-3-yl)ethyl](methyl)amino]methyl}-3-[(2-methoxyethoxy)methyl]-4-methyl-7-oxo-4,7-dihydrothieno[3,2-b]pyridine-6-carboxamide]: the melting point was 167 to 169 °C.

Regarding `COCCOCc1c(CN(C)CC(O)c2ncccn2)sc2c(=O)c(C(=O)NCc3ccc(Cl)cc3)cn(C)c12` (stereo not drawn) [Example 77, N-(4-Chlorobenzyl)-2-{[(2-hydroxy-2-pyrimidin-2-ylethyl)(methyl)amino]methyl}-3-[(2-methoxyethoxy)methyl]-4-methyl-7-oxo-4,7-dihydrothieno[3,2-b]pyridine-6-carboxamide], the melting point fell in the range of 146.5 to 147.5 °C.

`CN(Cc1sc2c(=O)c(C(=O)NCc3ccc(Cl)cc3)cn(C)c2c1CO)CC(O)c1cnccn1` (stereo not drawn) [Example 84, N-(4-Chlorobenzyl)-3-(hydroxymethyl)-2-{[(2-hydroxy-2-pyrazin-2-ylethyl)(methyl)amino]methyl}-4-methyl-7-oxo-4,7-dihydrothieno[3,2-b]pyridine-6-carboxamide] yielded a melting point of 211 to 213 °C.

In turn, `COCCOCc1c(CN(C)C[C@@H](O)c2ccco2)sc2c(=O)c(C(=O)NCc3ccc(Cl)cc3)cn(C)c12` [Example 74, N-(4-Chlorobenzyl)-2-{[[(2R)-2-(2-furyl)-2-hydroxyethyl](methyl)amino]methyl}-3-[(2-methoxyethoxy)methyl]-4-methyl-7-oxo-4,7-dihydrothieno[3,2-b]pyridine-6-carboxamide] had a melting point of 146 to 147 °C.

Consider `CN(Cc1sc2c(=O)c(C(=O)NCc3ccc(Cl)cc3)cn(C)c2c1CNS(C)(=O)=O)C[C@@H](O)c1ccccn1` [Example 92, N-(4-Chlorobenzyl)-2-{[[(2R)-2-hydroxy-2-pyridin-2-ylethyl](methyl)amino]methyl}-4-methyl-3-{[(methylsulfonyl)amino]methyl}-7oxo-4,7-dihydrothieno[3,2-b]pyridine-6-carboxamide], for which the melting point is 171 to 177 °C (dec.).

On to `C=CCOCc1c(CN(C)C[C@@H](O)c2ccccn2)sc2c(=O)c(C(=O)NCc3ccc(Cl)cc3)cn(C)c12` [Example 81, 3-[(Allyloxy)methyl]-N-(4-chlorobenzyl)-2-{[[(2R)-2-hydroxy-2-pyridin-2-ylethyl](methyl)amino]methyl}-4-methyl-7-oxo-4,7-dihydrothieno[3,2-b]pyridine-6-carboxamide], for which the melting point lay in the range of 125 to 127 °C.

For orientation: melting point means the temperature of the solid-liquid transition.

(Values after US6852731B2, “Antiviral compounds” (Pfizer, priority 2002, dated 2005).)
